Test results: the NIST ThermoML archive (doi:10.1021/je500431h)
Numbers after ± are expanded uncertainties.

Assay: xn = mol fraction of the nth substance listed
Details: 101 kPa, Liquid; for mass density: Pycnometric method; for electrical conductivity: conductivity meter LF 340 and a standard conductivity cell TetraCon

C=CCn1cc[n+](CCOC)c1.O=S(=O)([N-]S(=O)(=O)C(F)(F)F)C(F)(F)F + O=S(=O)([N-]S(=O)(=O)C(F)(F)F)C(F)(F)F.[Li+]
Details	electrical conductivity [S/m]	mass density [kg/m3]	viscosity [mPa·s]
308 K, x2 = 0.176	–	1480.1 ± 2.4	56.2 ± 2.4
308 K, x2 = 0.2508	–	1505.3 ± 2.3	72.2 ± 3.5
308 K, x2 = 0.3254	–	1525.3 ± 2.5	116.4 ± 8
308.2 K, x2 = 0.176	0.3 ± 0.018	–	–
308.2 K, x2 = 0.4001	0.0856 ± 0.0051	–	–
308.7 K, x2 = 0	0.546 ± 0.033	–	–
308.7 K, x2 = 0.2508	0.228 ± 0.014	–	–
308.8 K, x2 = 0.3254	0.16 ± 0.0096	–	–
308.9 K, x2 = 0.1007	0.425 ± 0.026	–	–
309 K, x2 = 0	–	1437 ± 2.2	23.7 ± 1
309 K, x2 = 0.1007	–	1459.7 ± 2.3	38 ± 1.7
309.2 K, x2 = 0.4001	–	–	221.6 ± 22
309.24 K, x2 = 0.4001	–	1551.1 ± 2.5	–
313 K, x2 = 0.176	–	1475.4 ± 2.3	44.4 ± 2
313 K, x2 = 0.2508	–	1500.4 ± 2.4	57.1 ± 2.4
313 K, x2 = 0.3254	–	1520.3 ± 2.4	89.4 ± 4.9
313.3 K, x2 = 0	0.627 ± 0.038	–	–
313.4 K, x2 = 0.4001	0.113 ± 0.0068	–	–
313.5 K, x2 = 0.3254	0.2 ± 0.012	–	–
313.9 K, x2 = 0.176	0.372 ± 0.022	–	–
314 K, x2 = 0	–	1432.3 ± 2.2	20.3 ± 0.9
314 K, x2 = 0.4001	–	1546.3 ± 2.5	168.3 ± 14
314.4 K, x2 = 0.1007	0.514 ± 0.031	–	–
314.4 K, x2 = 0.2508	0.284 ± 0.017	–	–
315 K, x2 = 0.1007	–	1453.9 ± 2.2	27.9 ± 1.2
317 K, x2 = 0	–	1429.6 ± 2.2	17.8 ± 0.8
317 K, x2 = 0.2508	–	1496.4 ± 2.4	47.8 ± 2.1
317 K, x2 = 0.3254	–	1516.3 ± 2.4	75.1 ± 3.7
317.9 K, x2 = 0.2508	0.327 ± 0.02	–	–
318 K, x2 = 0.176	–	1470.7 ± 2.3	35.8 ± 1.6
318 K, x2 = 0.4001	–	1542.3 ± 2.5	138.5 ± 10
318.1 K, x2 = 0	0.72 ± 0.043	–	–
318.1 K, x2 = 0.4001	0.141 ± 0.0085	–	–
319 K, x2 = 0.3254	0.248 ± 0.015	–	–
319.2 K, x2 = 0.1007	0.596 ± 0.036	–	–
319.5 K, x2 = 0.1007	–	1449.6 ± 2.2	22.8 ± 1
319.6 K, x2 = 0.176	0.453 ± 0.027	–	–
322.4 K, x2 = 0.176	0.493 ± 0.03	–	–
323 K, x2 = 0.176	–	1466 ± 2.3	29.6 ± 1.3
323 K, x2 = 0.3254	–	1510.4 ± 2.4	56.8 ± 2.4
323.3 K, x2 = 0	0.828 ± 0.05	–	–
323.5 K, x2 = 0	–	1423.5 ± 2.2	14.6 ± 0.6
323.9 K, x2 = 0.3254	0.3 ± 0.018	–	–
324 K, x2 = 0.2508	–	1489.5 ± 2.4	37.4 ± 1.6
324 K, x2 = 0.4001	–	1536.2 ± 2.5	100.9 ± 6.1
324.1 K, x2 = 0.4001	0.183 ± 0.011	–	–
324.4 K, x2 = 0.1007	0.694 ± 0.042	–	–
324.6 K, x2 = 0.2508	0.41 ± 0.025	–	–
325.2 K, x2 = 0.1007	–	1444.2 ± 2.2	19.6 ± 0.9
327 K, x2 = 0.3254	–	1506.5 ± 2.4	49 ± 2.1
327.2 K, x2 = 0.1007	–	1442.3 ± 2.2	17.7 ± 0.8
327.2 K, x2 = 0.176	–	1462 ± 2.3	25.4 ± 1.1
327.5 K, x2 = 0.4001	0.214 ± 0.013	–	–
327.9 K, x2 = 0	0.935 ± 0.056	–	–
328 K, x2 = 0	–	1419.4 ± 2.2	13.1 ± 0.6
328 K, x2 = 0.2508	–	1485.6 ± 2.3	32.3 ± 1.4
328 K, x2 = 0.4001	–	1532.2 ± 2.5	82.1 ± 4.3
328.5 K, x2 = 0.2508	0.467 ± 0.028	–	–
328.7 K, x2 = 0.176	0.588 ± 0.035	–	–
328.8 K, x2 = 0.3254	0.353 ± 0.021	–	–
328.9 K, x2 = 0.1007	0.778 ± 0.047	–	–
332.9 K, x2 = 0	1.06 ± 0.063	–	–
333.1 K, x2 = 0.3254	0.405 ± 0.024	–	–
333.4 K, x2 = 0.2508	0.535 ± 0.032	–	–
334 K, x2 = 0	–	1413.9 ± 2.2	11.2 ± 0.5
334 K, x2 = 0.1007	0.885 ± 0.053	–	–
334 K, x2 = 0.176	–	1455.7 ± 2.3	20.4 ± 0.9
334 K, x2 = 0.2508	–	1479.8 ± 2.4	25.9 ± 1.1
334 K, x2 = 0.3254	–	1499.7 ± 2.4	37.1 ± 1.6
334 K, x2 = 0.4001	–	1526.3 ± 2.5	63.2 ± 2.8
334.2 K, x2 = 0.1007	–	1435.7 ± 2.2	15.3 ± 0.7
334.3 K, x2 = 0.4001	0.275 ± 0.017	–	–
334.5 K, x2 = 0.176	0.691 ± 0.041	–	–
337 K, x2 = 0.3254	–	1496.9 ± 2.4	32 ± 1.4
337.4 K, x2 = 0.2508	0.6 ± 0.036	–	–
337.6 K, x2 = 0	1.18 ± 0.071	–	–
338 K, x2 = 0.176	–	1452.1 ± 2.3	18.2 ± 0.8
338 K, x2 = 0.2508	–	1475.9 ± 2.3	22.9 ± 1
338.1 K, x2 = 0.1007	–	1432 ± 2.2	12.9 ± 0.6
338.5 K, x2 = 0	–	1409.9 ± 2.2	10 ± 0.4
338.5 K, x2 = 0.3254	0.474 ± 0.028	–	–
338.9 K, x2 = 0.176	0.76 ± 0.046	–	–
339 K, x2 = 0.1007	0.986 ± 0.059	–	–
339 K, x2 = 0.4001	–	1521.4 ± 2.5	54.2 ± 2.2
339.3 K, x2 = 0.4001	0.323 ± 0.019	–	–
343 K, x2 = 0	1.33 ± 0.08	–	–
343 K, x2 = 0.3254	–	1491.1 ± 2.4	27.3 ± 1.2
343.2 K, x2 = 0.1007	–	1427.3 ± 2.2	11.4 ± 0.5
343.3 K, x2 = 0.3254	0.539 ± 0.032	–	–
343.5 K, x2 = 0.2508	0.698 ± 0.042	–	–
343.8 K, x2 = 0.176	0.858 ± 0.051	–	–
344 K, x2 = 0	–	1404.9 ± 2.2	8.8 ± 0.4
344 K, x2 = 0.176	–	1446.6 ± 2.3	15.4 ± 0.7
344 K, x2 = 0.4001	–	1516.5 ± 2.5	44.8 ± 2
344.4 K, x2 = 0.4001	0.385 ± 0.023	–	–
344.5 K, x2 = 0.1007	1.11 ± 0.066	–	–
345 K, x2 = 0.2508	–	1469.2 ± 2.3	19.2 ± 0.8
347 K, x2 = 0.3254	–	1487.3 ± 2.4	24 ± 1
348 K, x2 = 0	–	1401.3 ± 2.2	8.2 ± 0.4
348.1 K, x2 = 0	1.48 ± 0.089	–	–
348.2 K, x2 = 0.2508	0.784 ± 0.047	–	–
348.3 K, x2 = 0.1007	1.19 ± 0.072	–	–
348.5 K, x2 = 0.3254	0.62 ± 0.037	–	–
348.6 K, x2 = 0.176	0.954 ± 0.057	–	–
348.7 K, x2 = 0.4001	0.436 ± 0.026	–	–
349 K, x2 = 0.1007	–	1421.9 ± 2.2	10.3 ± 0.5
349 K, x2 = 0.176	–	1442 ± 2.3	13.7 ± 0.6
349 K, x2 = 0.2508	–	1465.4 ± 2.3	17.1 ± 0.8
349 K, x2 = 0.4001	–	1511.6 ± 2.5	38 ± 1.7
352 K, x2 = 0	1.6 ± 0.096	–	–
352.5 K, x2 = 0.2508	0.858 ± 0.051	–	–
353.3 K, x2 = 0.3254	0.694 ± 0.042	–	–
353.5 K, x2 = 0.4001	0.498 ± 0.03	–	–
354.2 K, x2 = 0	–	1395.8 ± 2.2	7 ± 0.3
354.5 K, x2 = 0.1007	–	1416.9 ± 2.2	9.5 ± 0.4
354.9 K, x2 = 0.1007	1.35 ± 0.081	–	–
354.9 K, x2 = 0.176	1.09 ± 0.065	–	–
355 K, x2 = 0.176	–	1436.6 ± 2.2	11.9 ± 0.5
355 K, x2 = 0.2508	–	1459.8 ± 2.4	14.6 ± 0.6
355 K, x2 = 0.4001	–	1505.8 ± 2.5	31.7 ± 1.4
356 K, x2 = 0.3254	–	1478.8 ± 2.4	18.9 ± 0.8
